US20230416262A1, “TRPML MODULATORS” (Casma Therapeutics, Inc., priority 2020, published 2023)

How the values were obtained:
THP-1 cells = experiment: Lamp1 lysosomal exocytosis assay; format: cell-based; settings: Homo sapiens, 55 min, 55 min incubation, top dose 20 μM
Outline: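 THP-1 cells (1e5/well) exposed to a 7-point 3-fold compound series, top final 20 μM, for 55 min at 37°C. Surface Lamp1 then stained with Lamp1-PE on ice in buffer containing 80 μM Dynasore, and read by flow cytometry as PE geometric mean on live, sytox-negative singlets.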

TFEB = TFEB nuclear translocation assay; format: cell-based; settings: Homo sapiens; HeLa wt or HeLa TRPML1 KO cells, treated for 2 hrs; ratio of nuclear to ring-region TFEB intensity
Outline: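 HeLa wild-type or TRPML1 KO cells treated 2 h with compound at 37 °C, PFA-fixed, immunostained for TFEB (Alexa 488) with Hoechst nuclei. Imaged at ×20, four fields/well. Value is ratio of nuclear to perinuclear-ring TFEB intensity, with nuclei counts.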

EC50 (THP-1 cells) [nM] | EC50 (TFEB) [nM] | SMILES
≥ 5010 | ≤ 2000 | O=C(OCc1ccccc1)N1CCC2(CC1)CN(S(=O)(=O)c1ccc(C(F)F)cc1)c1cc(F)ccc12 [Compound I-131, benzyl 1-((4-(difluoromethyl)phenyl)sulfonyl)-6-fluorospiro[indoline-3,4′-piperidine]-1′-carboxylate]
510 to 1000 | ≤ 2000 | O=C(OCc1cccnc1)N1CCC2(CC1)CN(S(=O)(=O)c1ccc(C(F)F)cc1)c1ccccc12 [Compound I-158, (pyridin-3-yl)methyl 1-[4-(difluoromethyl)benzenesulfonyl]-1,2-dihydrospiro[indole-3,4′-piperidine]-1′-carboxylate]
≥ 5010 | ≤ 2000 | O=C(OCc1ccccc1)N1CCC2(CC1)CN(S(=O)(=O)c1ccc(C(F)F)cc1)c1ccc(F)cc12 [Compound I-132]
≤ 500 | ≤ 2000 | Cc1ccc2c(c1)N(S(=O)(=O)c1ccc(S(=O)(=O)N(C)C)cc1)CC21CCCC1 [Compound I-79, N,N-dimethyl-4-((6′-methylspiro[cyclopentane-1,3′-indolin]-1′-yl)sulfonyl)benzenesulfonamide]

SMILES | EC50 (THP-1 cells) [nM] | EC50 (TFEB) [nM]
CN1CCC2(CC1)CN(S(=O)(=O)c1ccc(C(F)F)cc1)c1ccccc12 [Compound I-83] | ≥ 5010 | ≥ 10000
